Experimental findings from ChEMBL document CHEMBL1142909, “Synthesis and insecticidal activity of chromanone and chromone analogues of diacylhydrazines” (2007) are described below.

What all share (type): functional
Assay [1] deals with Aphis. The assay can be described thus: Insecticidal activity against Aphis medicagini at 250 mg/L relative to control.
For assay [2], the system named is Nilaparvata lugens. Kind of assay: Insecticidal activity against Nilaparvata lugens at 500 mg/L relative to control.
Assay [3] deals with Mythimna separata. Kind of assay: Insecticidal activity against Mythimna separata at 500 mg/L relative to control.
The test system of assay [4] is Tetranychus cinnabarinus. Kind of assay: Insecticidal activity against Tetranychus cinnabarinus at 250 mg/L relative to control.

SMILES strings stand for the structures.

For `Cc1ccc2occ(C(=O)N(NC(=O)c3cccc(Cl)c3)C(C)(C)C)c(=O)c2c1`, the Activity in assay [1] stood at 0%; in assay [2] it was 3.4%; in assay [3], 26.7%; in assay [4], 0%.

As for `CC1(C)CC(=O)c2cc(C(=O)NN(C(=O)c3ccc(Br)cc3)C(C)(C)C)ccc2O1`, the Activity in assay [1] was 4%; in assay [2] it was 0%; in assay [3] it was 6.7%; in assay [4], 0%.

In the case of `Cc1cc(C)cc(C(=O)N(NC(=O)c2ccc3c(c2)C(=O)CC(C)(C)O3)C(C)(C)C)c1`, the Activity in assay [1] was 8%; in assay [2], 7.1%; in assay [3] it was 100%; in assay [4] it was 66.7%.

Regarding `CC(C)(C)N(NC(=O)c1cccc(Cl)c1)C(=O)c1coc2ccccc2c1=O`, the Activity was determined as 4% in assay [1], 0% in assay [2], 20% in assay [3] and 0% in assay [4].

Take `CC1(C)CC(=O)c2cc(C(=O)NN(C(=O)c3ccccc3Cl)C(C)(C)C)ccc2O1`: the Activity turned out to be 8% in assay [1], 0% in assay [2], 66.7% in assay [3] and 58.3% in assay [4].

In the case of `CC(C)(C)N(NC(=O)c1cccc(Cl)c1)C(=O)c1coc2ccc(Cl)cc2c1=O`, the Activity in assay [1] is 16%; in assay [2], 0%; in assay [3], 73.3%; in assay [4] it was 0%.

Consider `CC1(C)CC(=O)c2cc(C(=O)NN(C(=O)c3ccccc3F)C(C)(C)C)ccc2O1`, for which the Activity in assay [1] came to 4%; in assay [2], 3.4%; in assay [3] it was 0%; in assay [4], 76.7%.

With `CC(C)(C)N(NC(=O)c1ccc(Cl)cc1)C(=O)c1coc2ccccc2c1=O`, the Activity in assay [1] stood at 2%; in assay [2], 0%; in assay [3], 66.7%; in assay [4], 0%.

Turning to `Cc1cccc(C(=O)NN(C(=O)c2coc3ccc(Cl)cc3c2=O)C(C)(C)C)c1`, the Activity was 6% in assay [1], 7.1% in assay [2], 26.7% in assay [3] and 0% in assay [4].

On to `CC1(C)CC(=O)c2cc(C(=O)NN(C(=O)c3ccccc3)C(C)(C)C)ccc2O1`, for which the Activity was 8% in assay [1], 0% in assay [2], 80% in assay [3] and 0% in assay [4].

With `CC(C)(C)N(NC(=O)c1ccccc1)C(=O)c1coc2ccccc2c1=O`, the Activity worked out at 21.1% in assay [1], 7.1% in assay [2], 0% in assay [3] and 0% in assay [4].

On to `CC(C)(C)N(NC(=O)c1ccccc1)C(=O)c1coc2ccc(Cl)cc2c1=O`, for which the Activity in assay [1] stood at 0%; in assay [2], 18.2%; in assay [3], 58.3%; in assay [4], 0%.

In the case of `CC1(C)CC(=O)c2cc(C(=O)NN(C(=O)c3ccc(F)cc3)C(C)(C)C)ccc2O1`, the Activity in assay [1] was 4%; in assay [2], 0%; in assay [3] it was 0%; in assay [4] it was 0%.

In the case of `CC1(C)CC(=O)c2cc(C(=O)NN(C(=O)c3cccc(Cl)c3)C(C)(C)C)ccc2O1`, the Activity in assay [1] is 0%; in assay [2], 0%; in assay [3] it was 13.3%; in assay [4], 0%.

Turning to `Cc1ccccc1C(=O)N(NC(=O)c1ccc2c(c1)C(=O)CC(C)(C)O2)C(C)(C)C`, the Activity in assay [1] came to 0%; in assay [2], 3.4%; in assay [3], 40%; in assay [4], 0%.

Turning to `Cc1ccc2occ(C(=O)N(NC(=O)c3ccccc3)C(C)(C)C)c(=O)c2c1`, the Activity in assay [1] was determined as 0%; in assay [2], 0%; in assay [3], 60%; in assay [4], 51.7%.

For the compound `CC1(C)CC(=O)c2cc(C(=O)NN(C(=O)c3ccc(Cl)cc3)C(C)(C)C)ccc2O1`, the Activity in assay [1] was found to be 4.2%; in assay [2], 0%; in assay [3] it was 84.2%; in assay [4], 0%.
